These results are taken from patent publication US20240287076A1, “COMPOUNDS FOR TARGETING DEGRADATION OF BRUTON'S TYROSINE KINASE” (BIOGEN MA INC., priority 2021, published 2024).

The structures appear in SMILES notation.

For the assay, the target named is T1, BTK (Homo sapiens, UniProt Q06187).
T1 construct: The GM01501.3 cell line endogenously expresses BTK with a HiBiT fusion tag via CRISPR knock-in at its C-terminal region; endogenous in cells; host or cells: GM01501.3 (GM01501 cells engineered by CRISPR knock-in of HiBiT at the BTK locus)
T1 sequence (Q06187 whole entry, the tested form may be a part): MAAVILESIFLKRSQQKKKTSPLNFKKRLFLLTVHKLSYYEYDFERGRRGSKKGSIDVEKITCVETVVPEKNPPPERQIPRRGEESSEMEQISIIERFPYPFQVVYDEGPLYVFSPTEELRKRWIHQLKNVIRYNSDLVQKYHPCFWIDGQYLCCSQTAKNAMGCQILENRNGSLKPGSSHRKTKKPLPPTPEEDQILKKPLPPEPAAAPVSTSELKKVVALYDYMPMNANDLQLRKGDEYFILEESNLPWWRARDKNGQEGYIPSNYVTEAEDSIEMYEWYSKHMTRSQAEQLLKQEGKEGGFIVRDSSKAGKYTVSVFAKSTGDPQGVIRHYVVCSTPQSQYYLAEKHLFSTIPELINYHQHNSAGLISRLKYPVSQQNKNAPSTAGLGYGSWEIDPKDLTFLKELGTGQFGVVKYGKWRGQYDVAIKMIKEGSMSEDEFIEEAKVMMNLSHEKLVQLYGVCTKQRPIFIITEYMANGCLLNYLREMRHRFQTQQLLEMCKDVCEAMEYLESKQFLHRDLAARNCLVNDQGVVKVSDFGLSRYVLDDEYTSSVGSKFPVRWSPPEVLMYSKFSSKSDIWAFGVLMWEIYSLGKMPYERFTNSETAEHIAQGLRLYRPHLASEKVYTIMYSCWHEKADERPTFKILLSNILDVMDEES
Put plainly: BTK degradation assay using the HiBiT Method (Nano-Glo HiBiT Lytic Assay, GM01501.3 cells). It is filed as cell-based. The conditions noted are these: HiBiT Degradation on GM01501.3 BTK @ 6 hours. Summed up: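 CRISPR knock-in GM01501.3 cells expressing endogenous BTK with C-terminal HiBiT tag, treated 6 h at 37 °C with compounds, 11-point half-log titration from 10 μM top, duplicates. Remaining BTK quantified by Nano-Glo HiBiT lytic luminescence versus DMSO controls; DC50 reported.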
(HiBiT is a short tag that completes a luciferase, so light tracks the accessible tagged protein.)
As a reminder, the DC50 is the concentration at which degradation of the target reaches its halfway point. A higher DC50 goes with degradation only at high concentration. For the compound `Cc1cc(-c2ncnn3cc(-c4ccn5cc(CN6CCC(c7ccc(C8CCC(=O)NC8=O)cc7)CC6)nc5c4)cc23)ccc1CNC(=O)c1noc(C(C)(C)C)n1` (stereo not drawn) [Example 211, 5-(tert-butyl)-N-(4-(6-(2-((4-(4-(2,6-dioxopiperidin-3-yl)phenyl)piperidin-1-yl)methyl)imidazo[1,2-a]pyridin-7-yl)pyrrolo[2,1-f][1,2,4]triazin-4-yl)-2-methylbenzyl)-1,2,4-oxadiazole-3-carboxamide], the DC50 was < 100 nM.
With `CC(C)(C)OC1CN(C(=O)NCc2ccc(-c3ncnn4cc(-c5ccc(CN6CCC(c7ccc(NC8CCC(=O)NC8=O)cn7)CC6)cc5)cc34)cc2F)C1` (stereo not drawn) [Example 100, 3-tert-butoxy-N-[[4-[6-[4-[[4-[5-[(2,6-dioxo-3-piperidyl)amino]-2-pyridyl]-1-piperidyl]methyl]phenyl]pyrrolo[2,1-f][1,2,4]triazin-4-yl]-2-fluoro-phenyl]methyl]azetidine-1-carboxamide], the DC50 was < 100 nM.
Consider `CC(C)(C)c1nc(C(=O)NCc2ccc(-c3ncnn4cc(-c5ccc(CN6CCN(Cc7cccc(OC8CCC(=O)NC8=O)c7)CC6)cn5)cc34)cc2F)no1` (stereo not drawn) [Example 235, 5-(tert-butyl)-N-(4-(6-(5-((4-(3-((2,6-dioxopiperidin-3-yl)oxy)benzyl)piperazin-1-yl)methyl)pyridin-2-yl)pyrrolo[2,1-f][1,2,4]triazin-4-yl)-2-fluorobenzyl)-1,2,4-oxadiazole-3-carboxamide], for which the DC50 was < 100 nM.
Compound `Cc1cc(-c2ncnn3cc(-c4ccc(CN(C)CC(F)(F)Cc5ccc(NC6CCC(=O)NC6=O)cc5)cc4)cc23)ccc1CNC(=O)c1noc(C(C)(C)C)n1` (stereo not drawn) [Example 150, 5-tert-butyl-N-[[4-[6-[4-[[[3-[4-[(2,6-dioxo-3-piperidyl)amino]phenyl]-2,2-difluoro-propyl]-methyl-amino]methyl]phenyl]pyrrolo[2,1-f][1,2,4]triazin-4-yl]-2-methyl-phenyl]methyl]-1,2,4-oxadiazole-3-carboxamide] registered a DC50 of 100 to 500 nM.
For `Cc1cc(-c2ncnn3cc(-c4ccc(CN5CCC(c6ccc(NC7CCC(=O)NC7=O)cc6)CC5)cc4)cc23)ccc1CNC(=O)c1ccc(F)cc1` (stereo not drawn) [Example 64, N-[[4-[6-[4-[[4-[4-[(2,6-dioxo-3-piperidyl)amino]phenyl]-1-piperidyl]methyl]phenyl]pyrrolo[2,1-f][1,2,4]triazin-4-yl]-2-methyl-phenyl]methyl]-4-fluoro-benzamide], the DC50 is < 100 nM.
For the compound `Cn1nc(N2CCC(=O)NC2=O)c2ccc(C3CCN(Cc4ccc(-c5cc6c(-c7ccc(CNC(=O)c8noc(C(C)(C)C)n8)c(F)c7)ncnn6c5)cc4F)CC3)cc21` [Example 33, 5-tert-butyl-N-[[4-[6-[4-[[4-[3-(2,4-dioxohexahydropyrimidin-1-yl)-1-methyl-indazol-6-yl]-1-piperidyl]methyl]-3-fluoro-phenyl]pyrrolo[2,1-f][1,2,4]triazin-4-yl]-2-fluoro-phenyl]methyl]-1,2,4-oxadiazole-3-carboxamide], the DC50 is < 100 nM.
`Cc1cc(-c2ncnn3cc(-c4ccc(CN5CCC(c6ccc(NC7CCC(=O)NC7=O)cc6)CC5)cc4)cc23)ccc1CNC(=O)c1ccc(C(C)(C)C)cc1` (stereo not drawn) [Example 84, 4-tert-butyl-N-[[4-[6-[4-[[4-[4-[(2,6-dioxo-3-piperidyl)amino]phenyl]-1-piperidyl]methyl]phenyl]pyrrolo[2,1-f][1,2,4]triazin-4-yl]-2-methyl-phenyl]methyl]benzamide]: the DC50 was < 100 nM.
Regarding `CC(C)(C)c1nc(C(=O)NCc2ccc(-c3ncnn4cc(-c5ccc(CN6CCC(CCc7ccc(OC8CCC(=O)NC8=O)cc7)CC6)cn5)cc34)cc2F)no1` (stereo not drawn) [Example 239, 5-(tert-butyl)-N-(4-(6-(5-((4-(4-((2,6-dioxopiperidin-3-yl)oxy)phenethyl)piperidin-1-yl)methyl)pyridin-2-yl)pyrrolo [2,1-f][1,2,4]triazin-4-yl)-2-fluorobenzyl)-1,2,4-oxadiazole-3-carboxamide], the DC50 is < 100 nM.
As to `Cc1cc(-c2ncnn3cc(CCCCN4CCN(c5ccc(NC6CCC(=O)NC6=O)cc5)CC4)cc23)ccc1CNC(=O)c1noc(C(C)(C)C)n1` (stereo not drawn) [Example 131, 5-tert-butyl-N-[[4-[6-[4-[4-[4-[(2,6-dioxo-3-piperidyl)amino]phenyl]piperazin-1-yl]butyl]pyrrolo[2,1-f][1,2,4]triazin-4-yl]-2-methyl-phenyl]methyl]-1,2,4-oxadiazole-3-carboxamide], the DC50 is < 100 nM.
As for `Cc1cc(-c2ccnc3cn(-c4ccc(CN5CCC(c6ccc(NC7CCC(=O)NC7=O)cc6)CC5)cc4)nc23)ccc1CNC(=O)c1noc(C(C)(C)C)n1` (stereo not drawn) [Example 223, 5-tert-butyl-N-[[4-[2-[4-[[4-[4-[(2,6-dioxo-3-piperidyl)amino]phenyl]-1-piperidyl]methyl]phenyl]pyrazolo[4,3-b]pyridin-7-yl]-2-methyl-phenyl]methyl]-1,2,4-oxadiazole-3-carboxamide], the DC50 is < 100 nM.
Take `CC(C)(C)c1nc(C(=O)NCc2ccc(-c3ncnn4cc(-c5ccc(CN6CCC(c7ccc(C8CCC(=O)NC8=O)cc7)CC6)cc5)cc34)cc2)no1` (stereo not drawn) [Example 40, 5-tert-butyl-N-[[4-[6-[4-[[4-[4-(2,6-dioxo-3-piperidyl)phenyl]-1-piperidyl]methyl]phenyl]pyrrolo[2,1-f][1,2,4]triazin-4-yl]phenyl]methyl]-1,2,4-oxadiazole-3-carboxamide]: the DC50 was < 100 nM.
For the compound `Cc1cc(-c2ccnc3nn(CCCCN4CCC(c5ccc(NC6CCC(=O)NC6=O)cc5)CC4)cc23)ccc1CNC(=O)c1noc(C(C)(C)C)n1` (stereo not drawn) [Example 160, 5-tert-butyl-N-[[4-[2-[4-[4-[4-[(2,6-dioxo-3-piperidyl)amino]phenyl]-1-piperidyl]butyl]pyrazolo[3,4-b]pyridin-4-yl]-2-methyl-phenyl]methyl]-1,2,4-oxadiazole-3-carboxamide], the DC50 was > 1000 nM.
For `Cc1cc(-c2ncnn3cc(N4CCN(C(=O)C5CC6(CCN(C(=O)c7ccc(OC8CCC(=O)NC8=O)cc7)C6)C5)CC4)cc23)ccc1CNC(=O)c1noc(C(C)(C)C)n1` (stereo not drawn) [Example 178, 5-(tert-butyl)-N-(4-(6-(4-(6-(4-((2,6-dioxopiperidin-3-yl)oxy)benzoyl)-6-azaspiro[3.4]octane-2-carbonyl)piperazin-1-yl)pyrrolo[2,1-f][1,2,4]triazin-4-yl)-2-methylbenzyl)-1,2,4-oxadiazole-3-carboxamide] the value was < 100 nM.
For `Cc1cc(-c2ncnn3cc(CCN4CC[C@@H](c5ccc6c(N7CCC(=O)NC7=O)nn(C)c6c5)C4)cc23)ccc1CNC(=O)c1noc(C(C)(C)C)n1` (single isomer, unassigned) [Example 266] the value was < 100 nM.
Consider `CC(C)(C)OC1CN(C(=O)NCc2ccc(-c3ncnn4cc(-c5ccc(CN6CCC(c7ccc(NC8CCC(=O)NC8=O)cc7)CC6)cc5)cc34)cc2F)C1` (stereo not drawn) [Example 99, 3-tert-butoxy-N-[[4-[6-[4-[[4-[4-[(2,6-dioxo-3-piperidyl)amino]phenyl]-1-piperidyl]methyl]phenyl]pyrrolo[2,1-f][1,2,4]triazin-4-yl]-2-fluoro-phenyl]methyl]azetidine-1-carboxamide], for which the DC50 was < 100 nM.
